pEC50, pIC50: −log10 of the molar value.
Key:
HCV NS5B = target: T1, HCV NS5B (Hepatitis C virus genotype 1b, UniProt Q9WMX2); assay: HCV NS5B RdRp enzyme assay (standard or modified); format: biochemical; details: HCV NS5B RdRp genotype 1b enzyme; standard or modified assay not stated
T1 construct: The protein was expressed with an 18 amino acid C-terminal truncation to enhance the solubility; made in house; host or cells: E. coli BL21(DE3), pET21a
Experimental: HCV NS5B RdRp cloning, expression, and purification. The cDNA encoding the NS5B protein of HCV, genotype 1b, was cloned into the pET21a expression vector. The protein was expressed with an 18 amino acid C-terminal truncation to enhance the solubility. The E. coli competent cell line BL21(DE3) was used for expression of the protein. Cultures were grown at 37° C. for ˜4 hours until the cultures reached an optical density of 2.0 at 600 nm. The cultures were cooled to 20° C. and induced with 1 mM IPTG. Fresh ampicillin was added to a final concentration of 50 μg/ml and the cells were grown overnight at 20° C.
Cell pellets (3 L) were lysed for purification to yield 15-24 mgs of purified NS5B. The lysis buffer consisted of 20 mM Tris-HCl, pH 7.4, 500 mM NaCl, 0.5% triton X-100, 1 mM DTT, 1 mM EDTA, 20% glycerol, 0.5 mg/ml lysozyme, 10 mM MgCl2, 15 ug/ml deoxyribonuclease I, and Complete TM protease inhibitor tablets (Roche). After addition of the lysis buffer, frozen cell pellets were resuspended using a tissue homogenizer. To reduce the viscosity of the sample, aliquots of the lysate were sonicated on ice using a microtip attached to a Branson sonicator. The sonicated lysate was centrifuged at 100,000×g for 1 hr at 4° C. and filtered through a 0.2 μm filter unit (Corning).
The protein was purified using two sequential chromatography steps: Heparin sepharose CL-6B and polyU sepharose 4B (Pharmacia). The chromatography buffers were identical to the lysis buffer but contained no lysozyme, deoxyribonuclease I, MgCl2 or protease inhibitor and the NaCl concentration of the buffer was adjusted according to the requirements for charging the protein onto the column. Each column was eluted with a NaCl gradient which varied in length from 5-50 column volumes depending on the column type. After the final chromatography step, the resulting purity of the enzyme is >90% based on SDS-PAGE analysis. The enzyme was aliquoted and stored at −80° C.
Standard HCV NS5B RdRp enzyme assay. HCV RdRp genotype 1b assays were run in a final volume of 60 μl in 96 well plates (Corning 3600). The assay buffer is composed of 20 mM Hepes, pH 7.5, 2.5 mM KCl, 2.5 mM MgCl2, 1 mM DTT, 1.6 U RNAse inhibitor (Promega N2515), 0.01 mg/ml BSA (Sigma B6917), and 2% glycerol. All compounds were serially diluted (3-fold) in DMSO and diluted further in water such that the final concentration of DMSO in the assay was 2%. HCV RdRp genotype 1b enzyme was used at a final concentration of 28 nM. A polyA template was used at 6 nM, and a biotinylated oligo-dT12 primer was used at 180 nM final concentration. Template was obtained commercially (Amersham 27-4110). Biotinylated primer was prepared by Sigma Genosys. 3H-UTP was used at 0.6 μCi (0.29 μM total UTP). Reactions were initiated by the addition of enzyme, incubated at 30° C. for 60 min, and stopped by adding 25 μl of 50 mM EDTA containing SPA beads (4 μg/μl, Amersham RPNQ 0007). Plates were read on a Packard Top Count NXT after >1 hr incubation at room temperature.
Modified HCV NS5B RdRp enzyme assay. A modified enzyme assay was performed essentially as described for the standard enzyme assay except for the following: The biotinylated oligo dT12 primer was precaptured on streptavidin-coated SPA beads by mixing primer and beads in assay buffer and incubating at room temperature for one hour. Unbound primer was removed after centrifugation. The primer-bound beads were resuspended in 20 mM Hepes buffer, pH 7.5 and used in the assay at final concentrations of 20 nM primer and 0.67 μg/μl beads. Order of addition in the assay: enzyme (1.75 nM) was added to diluted compound followed by the addition of a mixture of template (0.36 nM), 3H-UTP (0.6 μCi, 0.29 μM), and primer-bound beads, to initiate the reaction; concentrations given are final. Reactions were allowed to proceed for 4 hours at 30° C.
IC50 values for compounds were determined using seven different [I]. […]

HCV replicon cells = assay: HCV replicon FRET / luciferase assay; format: cell-based; details: 50% reduction in FRET or luciferase activity
Experimental: FRET Assay Preparation. The HCV FRET screening assay was performed in 96-well cell culture plates. The FRET peptide (Anaspec, Inc.) (Taliani et al., Anal. Biochem. 1996, 240, 60-67) contains a fluorescence donor, EDANS, near one end of the peptide and an acceptor, DABCYL, near the other end. The fluorescence of the peptide is quenched by […] resonance energy transfer (RET) between the donor and the acceptor, but as the NS3 protease cleaves the peptide the products are released from RET quenching and the fluorescence of the donor becomes apparent. The assay reagent was made as follows: 5× cell Luciferase cell culture lysis reagent from Promega (#E153A) diluted to 1× with dH2O, NaCl added to 150 mM final, the FRET peptide diluted to 20 μM final from a 2 mM stock.
To prepare plates, HCV replicon cells, with or without a Renilla luciferase reporter gene, were trypsinized and plated in a 96-well plate with titrated test compounds added in columns 3 through 12; columns 1 and 2 contained a control compound (HCV control inhibitor), and the bottom row contained cells with DMSO only. The plates were then placed in a CO2 incubator at 37° C.
Assays. Subsequent to addition of the test compounds described above (FRET Assay Preparation), at various times the plate was removed and Alamar blue solution (Trek Diagnostics, #00-100) was added to measure cellular toxicity. After reading in a Cytoflour 4000 instrument (PE Biosystems), plates were rinsed with PBS and then used for FRET assay by the addition of 30 ul of the FRET peptide assay reagent described above (FRET Assay Preparation) per well. The plate was then placed into the Cytoflour 4000 instrument which had been set to 340 excite/490 emission, automatic mode for up to 20 cycles and the plate read in a kinetic mode. Typically, the signal to noise using an endpoint analysis after the reads was at least three-fold. Alternatively, after Alamar blue reading, plates were rinsed with PBS, then used for luciferase assay using the Promega Dual-Glo Luciferase Assay System or the Promega EnduRen Live Cell Substrate assay.
Compound analysis was performed by quantification of the relative HCV replicon inhibition and the relative cytotoxicity values. To calculate cytoxicity values, the average Alamar Blue fluorescence signals from the control wells were set as 100% non-toxic. The individual signals in each of the compound test wells were then divided by the average control signal and multiplied by 100% to determine […]. To calculate the HCV replicon inhibition values, an average background value was obtained from the two wells containing the highest amount of HCV control inhibitor at the end of the assay period. These numbers were similar to those obtained from naïve Huh-7 cells. The background numbers were then subtracted from the average signal obtained from the control wells and this number was used as 100% activity. The individual signals in each of the compound test wells were then divided by the averaged control values after background subtraction and multiplied by 100% to determine percent activity. EC50 values were calculated as the concentration which caused a 50% reduction in FRET or luciferase activity. The two numbers generated for the compound plate, percent cytoxicity and percent activity, were used to determine compounds of interest for further analysis.

T1 sequence (Q9WMX2 2420-2992): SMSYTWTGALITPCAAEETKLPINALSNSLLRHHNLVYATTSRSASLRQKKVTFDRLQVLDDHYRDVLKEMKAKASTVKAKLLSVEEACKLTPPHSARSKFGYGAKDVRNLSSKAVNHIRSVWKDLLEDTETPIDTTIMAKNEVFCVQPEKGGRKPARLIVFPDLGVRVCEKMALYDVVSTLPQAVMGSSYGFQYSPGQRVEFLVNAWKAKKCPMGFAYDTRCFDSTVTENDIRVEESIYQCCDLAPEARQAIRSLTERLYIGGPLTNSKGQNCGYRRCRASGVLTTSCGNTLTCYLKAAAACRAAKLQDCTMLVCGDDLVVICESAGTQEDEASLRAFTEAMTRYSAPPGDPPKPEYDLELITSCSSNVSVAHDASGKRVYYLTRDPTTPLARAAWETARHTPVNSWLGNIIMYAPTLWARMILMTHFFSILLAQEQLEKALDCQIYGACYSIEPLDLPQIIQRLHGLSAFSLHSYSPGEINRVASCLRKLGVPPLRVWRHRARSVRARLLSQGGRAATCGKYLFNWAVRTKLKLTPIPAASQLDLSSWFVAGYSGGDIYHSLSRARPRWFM

| SMILES | pIC50 (HCV NS5B) | pEC50 (HCV replicon cells; Hepatitis C virus) | pEC50 (HCV replicon cells) |
| --- | --- | --- | --- |
| COc1ccc2c(c1)C1CC1(C(=O)N1CCN3CCC[C@@H]3C1)Cn1c-2c(C2CCCCC2)c2ccc(C(=O)NS(C)(=O)=O)cc21 (stereo partly drawn) | 6.30 to 8.34 | 6.30 to 8.34 |  |
| COc1ccc2c(c1)C1CC1(C(=O)N1CCN3CCCC3C1)Cn1c-2c(C2CCCCC2)c2ccc(C(=O)NS(=O)(=O)N(C)C)cc21 (stereo not drawn) | 6.30 to 8.34 | 6.30 to 8.34 |  |
| COc1ccc2c(c1)C1CC1(C(=O)N1CC3CN(C(=O)OC(C)(C)C)CC3C1)Cn1c-2c(C2CCCCC2)c2ccc(C(=O)NS(=O)(=O)C3CC3)cc21 (stereo not drawn) | 6.30 to 8.34 |  |  |
| COc1ccc2c(c1)C1CC1(C(=O)N1CC3CCCN(C(C)=O)C3C1)Cn1c-2c(C2CCCCC2)c2ccc(C(=O)NS(=O)(=O)N(C)C)cc21 (stereo not drawn) [drawing 36] | 6.30 to 8.34 |  | 6.30 to 8.34 |
| COc1ccc2c(c1)[C@@H]1C[C@]1(C(=O)N1CC3CCCN(C(C)=O)C3C1)Cn1c-2c(C2CCCCC2)c2ccc(C(=O)NS(=O)(=O)N(C)C)cc21 (stereo partly drawn) [drawing 73] | 6.30 to 8.34 |  | 6.30 to 8.34 |
| COc1ccc2c(c1)C1CC1(C(=O)N1CC3CCCN(C(C)=O)C3C1)Cn1c-2c(C2CCCCC2)c2ccc(C(=O)NS(=O)(=O)N(C)C)cc21 (stereo not drawn) [drawing 34] | 6.30 to 8.34 | 6.30 to 8.34 |  |
| COc1ccc2c(c1)C1CC1(C(=O)N1CCN3CCC[C@H]3C1)Cn1c-2c(C2CCCCC2)c2ccc(C(=O)NS(=O)(=O)N3CCOCC3)cc21 (stereo partly drawn) | 6.30 to 8.34 | 6.30 to 8.34 |  |
| COc1ccc2c(c1)C1CC1(C(=O)N1CCN3CCCC3C1C)Cn1c-2c(C2CCCCC2)c2ccc(C(=O)NS(=O)(=O)N(C)C)cc21 (stereo not drawn) | 6.30 to 8.34 | 6.30 to 8.34 |  |
| COc1ccc2c(c1)C1CC1(C(=O)N1CCC[C@H]3CN(C(C)=O)C[C@H]31)Cn1c-2c(C2CCCCC2)c2ccc(C(=O)NS(=O)(=O)N(C)C)cc21 (stereo partly drawn) | 6.30 to 8.34 | 6.30 to 8.34 |  |
| COc1ccc2c(c1)C1CC1(C(=O)N1CC3CCCNC3C1)Cn1c-2c(C2CCCCC2)c2ccc(C(=O)NS(=O)(=O)C3CC3)cc21 (stereo not drawn) | 6.30 to 8.34 | 6.30 to 8.34 |  |
| COc1ccc2c(c1)C1CC1(C(=O)N1CC3CN(C)CC3C1)Cn1c-2c(C2CCCCC2)c2ccc(C(=O)NS(=O)(=O)C3CC3)cc21 (stereo not drawn) | 6.30 to 8.34 | 6.30 to 8.34 |  |
| COc1ccc2c(c1)C1CC1(C(=O)N1CCC[C@H]3CN(Cc4ccccc4)C[C@H]31)Cn1c-2c(C2CCCCC2)c2ccc(C(=O)NS(N)(=O)=O)cc21 (stereo partly drawn) | 6.30 to 8.34 | 6.30 to 8.34 |  |
| COc1ccc2c(c1)C1CC1(C(=O)N1CCN3CCCCC3C1)Cn1c-2c(C2CCCCC2)c2ccc(C(=O)NS(C)(=O)=O)cc21 (stereo not drawn) | 6.30 to 8.34 | 6.30 to 8.34 |  |
| COc1ccc2c(c1)C1CC1(C(=O)N1CC3CN(C)CC3C1)Cn1c-2c(C2CCCCC2)c2ccc(C(=O)NS(=O)(=O)N(C)C)cc21 (stereo not drawn) | 6.30 to 8.34 | 6.30 to 8.34 |  |
| COc1ccc2c(c1)C1CC1(C(=O)N1C[C@H]3CN(Cc4ccccc4)C[C@H]3C1)Cn1c-2c(C2CCCCC2)c2ccc(C(=O)NS(=O)(=O)N(C)C)cc21 (stereo partly drawn) | 6.30 to 8.34 | 6.30 to 8.34 |  |
| CNC(=O)N1CCCC2CN(C(=O)C34CC3c3cc(OC)ccc3-c3c(C5CCCCC5)c5ccc(C(=O)NS(=O)(=O)N(C)C)cc5n3C4)CC21 (stereo not drawn) | 6.30 to 8.34 | 6.30 to 8.34 |  |
| COc1ccc2c(c1)[C@@H]1C[C@]1(C(=O)N1CCN3CCC[C@H]3C1)Cn1c-2c(C2CCCCC2)c2ccc(C(=O)NS(=O)(=O)N(C)C)cc21 | 6.30 to 8.34 | 6.30 to 8.34 |  |
| COc1ccc2c(c1)C1CC1(C(=O)N1CCN3CCC[C@@H]3C1)Cn1c-2c(C2CCCCC2)c2ccc(C(=O)NS(=O)(=O)C3CC3)cc21 (stereo partly drawn) | 6.30 to 8.34 | 6.30 to 8.34 |  |
| COc1ccc2c(c1)C1CC1(C(=O)N1CCN3CCC[C@H]3C1)Cn1c-2c(C2CCCCC2)c2ccc(C(=O)NS(C)(=O)=O)cc21 (stereo partly drawn) | 6.30 to 8.34 | 6.30 to 8.34 |  |
| COc1ccc2c(c1)C1CC1(C(=O)N1CC3CN(C(=O)N(C)C)CC3C1)Cn1c-2c(C2CCCCC2)c2ccc(C(=O)NS(N)(=O)=O)cc21 (stereo not drawn) | 6.30 to 8.34 |  |  |
| COc1ccc2c(c1)C1CC1(C(=O)N1CC3CN(C(=O)C4CC4)CC3C1)Cn1c-2c(C2CCCCC2)c2ccc(C(=O)NS(N)(=O)=O)cc21 (stereo not drawn) | 6.30 to 8.34 |  |  |
